Experimental data from patent US20260356860A1, “2-SUBSTITUTED 3,4A,5,7,8,8A-HEXAHYDRO-4H-THIOPYRANO[4,3-DJPYRIMIDIN-4-ONES FOR WOUND TREATMENT” (priority 2022, published 2026).
Where “and” joins values, the source holds several entries; their conditions need not be identical. Equal entries are not always repeated.

Assays:
[1] = system: HEK293 SuperTOPFlash reporter cells, Wnt promoter; assay: HEK CELL Wnt Assay (luciferase reporter); type: cell-based; settings: serial dilutions, with or without 50 ng/mL Wnt3a; 18 h
Outline: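 Reporter cells were seeded 24 h before dosing with serial dilutions ([…] to 1 nM), with or without 50 ng/mL Wnt3a, and incubated 18 h. Untreated cells served as negative control, with luciferase as read-out.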

[2] = system: HEK293 SuperTOPFlash reporter cells, Wnt promoter; assay: Wnt inhibition in HEK293 SuperTOPFlash reporter cells, DMSO vs aqueous GO-HA (FIGS. 1-3); type: cell-based
Method: In order to determine the effect of the compounds of Formula (I) on Wnt inhibition, an invitro assay using HEK293 SuperTOPFlash reporter cells, with the Wnt promoter driving a luciferase reporter gene, were utilized. 40,000 HEK293 SuperTOPFlash reporter cells were seeded, per well, in a 48 well plate for 24 hours, prior to administration of serial dilutions of the compounds of Formula (I) to individual wells. Serial dilutions ranging from […] to 1 nM of compounds of Formula (I) were added with or without 50 ng/mL Wnt3α (Time Biosciences) and allowed to incubate with the reporter cells for 18 hours. Reporter cells with no treatment were used as negative control.

[3] = system: S. aureus (MRSA) (derived from ATCC ® 33593 ™); assay: Bacteriostasis, log reduction; type: cell-based; settings: for Average result / Log Reduction / Log Value: S. aureus (MRSA) ATCC 33593
[4] = system: new porcine skin; assay: Elasticity of healed wound; type: in vivo; settings: day 21; for Elasticity, Mean / Elasticity, individual values: topical
Method: (§1) Additional tests were performed including elasticity (Table 12); max force (Table 13); tensile strength (strain) (Table 14); energy peak (Table 15); rete-ridge formation; and collagen organization (plane polarized light) (FIG. 24) of the healed wound sites, described as follows.
A is saline (control), B is serum formulation (vehicle), C is GO-HA (vehicle), D is Compound 1; E is Compound 1+GO-HA; F is Compound 8; G is Compound 8+GO-HA; H is Compound 10; and J is Compound 10+GO-HA.
Elasticity (N/mm) is the ability of a material to return to its original shape after stress has been removed. All compounds of Formula (I) tested with or without GO-HA ranged from 33% to 99% improvement in elasticity compared to the saline control.

[5] = system: new porcine skin; assay: Max force of healed wound; type: in vivo; settings: day 21; for Max Force / Max Force, Mean: topical
Method: as §1
A is saline (control), B is serum formulation control (vehicle), C is GO-HA (vehicle), D is Compound 1; E is Compound 1+GO-HA; F is Compound 8; G is Compound 8+GO-HA; H is Compound 10; and J is Compound 10+GO-HA. Descriptions for saline control, serum formulation control, and GO-HA are as provided above for FIG. 19.
Max Force (N) is the average force required to break/rupture a material. All compounds of Formula (I) tested with or without GO-HA ranged from 18% to 68% improvement in max force compared to the saline control.

[6] = system: A. baumannii (derived from ATCC ® 19606 ™); assay: Bacteriostasis, log reduction; type: cell-based; settings: A. baumannii ATCC 19606
[7] = system: S. pyogenes (derived from ATCC ® 19615 ™); assay: Bacteriostasis, log reduction; type: cell-based; settings: S. pyogenes ATCC 19615

CC(C)(OCCO)c1ccc(-c2nc3c(c(=O)[nH]2)CSCC3)cc1 [Compound 8, 2-(4-(2-(2-hydroxyethoxy)propan-2-yl)phenyl)-3,5,7,8-tetrahydro-4H-thiopyrano[4,3-d]pyrimidin-4-one]
IC50 [1]: 4.4 nM
IC50 [2]: 5 to 10 nM
Average result ([3]; 24 h): 3.3 × 10^6
Log Reduction ([3]; 24 h): No
Log Value ([3]; 24 h): 6.5
Average result ([3]; 72 h): 1.0 × 10^6
Log Reduction ([3]; 72 h): No
Log Value ([3]; 72 h): 6.0
Elasticity, Mean [4]: 40.080 N/mm
Elasticity, individual values [4]: 47.748 N/mm and 22.23 N/mm and 55.607 N/mm and 46.485 N/mm and 28.331 N/mm
Max Force ([5]; individual value 1): 404.094 N
Max Force ([5]; individual value 2): 488.094 N
Max Force ([5]; individual value 3): 273.110 N
Max Force ([5]; individual value 4): 330.413 N
Max Force ([5]; individual value 5): 169.61 N
Max Force, Mean [5]: 333.196 N

COC(=O)NCCOC(C)(C)c1ccc(-c2nc3c(c(=O)[nH]2)CSCC3)cc1 [Compound 18, methyl (2-((2-(4-(4-oxo-3,5,7,8-tetrahydro-4H-thiopyrano[4,3-d]pyrimidin-2-yl)phenyl)propan-2-yl)oxy)ethyl)carbamate]
IC50 [1]: 6 nM
Average result ([6]; 24 h): <200
Log Reduction ([6]; 24 h): >3.0
Log Value ([6]; 24 h): <2.3
Average result ([6]; 72 h): <200
Log Reduction ([6]; 72 h): >3.0
Log Value ([6]; 72 h): <2.3
Average result ([3]; 24 h): 1.5 × 10^3
Log Reduction ([3]; 24 h): 1.6
Log Value ([3]; 24 h): 3.2
Average result ([3]; 72 h): <200
Log Reduction ([3]; 72 h): >2.5
Log Value ([3]; 72 h): <2.3
Average result ([7]; 24 h): <200
Log Reduction ([7]; 24 h): >3.2
Log Value ([7]; 24 h): <2.3
Average result ([7]; 72 h): <200
Log Reduction ([7]; 72 h): >3.2
Log Value ([7]; 72 h): <2.3

O=c1[nH]c(-c2ccc(-c3ccc(Br)nc3)cc2)nc2c1CSCC2 [Compound 7, 2-(4-(6-bromopyridin-3-yl)phenyl)-3,5,7,8-tetrahydro-4H-thiopyrano [4,3-d]pyrimidin-4-one]
IC50 [1]: 17 nM
IC50 [2]: 5 to 10 nM
Average result ([3]; 24 h): 2.7 × 10^3
Log Reduction ([3]; 24 h): 1.2
Log Value ([3]; 24 h): 3.4
Average result ([3]; 72 h): 1.4 × 10^5
Log Reduction ([3]; 72 h): No
Log Value ([3]; 72 h): 5.1

O=c1[nH]c(-c2ccc(B(O)O)cc2)nc2c1CSCC2 [Compound 1, (4-(4-oxo-3,5,7,8-tetrahydro-4H-thiopyrano[4,3-d]pyrimidin-2-yl)phenyl)boronic acid]
IC50 [1]: 2000 nM
IC50 [2]: 2000 nM
Average result ([6]; 24 h): <200
Log Reduction ([6]; 24 h): >3.0
Log Value ([6]; 24 h): <2.3
Average result ([6]; 72 h): <200
Log Reduction ([6]; 72 h): >3.0
Log Value ([6]; 72 h): <2.3
effect on MRSA growth ([3]; 72 h, test 1): did not affect MRSA growth
Average result ([3]; 24 h): 9.3 × 10^3
Log Reduction ([3]; 24 h): 0.6
Log Value ([3]; 24 h): 4.0
Average result ([3]; 72 h): 4.0 × 10^4
Log Reduction ([3]; 72 h): No
Log Value ([3]; 72 h): 4.6
Average result ([7]; 24 h): <200
Log Reduction ([7]; 24 h): >3.2
Log Value ([7]; 24 h): <2.3
Average result ([7]; 72 h): <200
Log Reduction ([7]; 72 h): >3.2
Log Value ([7]; 72 h): <2.3
Elasticity, Mean [4]: 37.628 N/mm
Elasticity, individual values [4]: 39.593 N/mm and 27.299 N/mm and 33.002 N/mm and 50.617 N/mm
Max Force ([5]; individual value 1): 290.184 N
Max Force ([5]; individual value 2): 278.868 N
Max Force ([5]; individual value 3): 250.554 N
Max Force ([5]; individual value 4): 273.195 N
Max Force, Mean [5]: 273.200 N

O=c1[nH]c(-c2ccc(-c3ccc(B(O)O)cc3)cc2)nc2c1CSCC2 [Compound 10, (4′-(4-oxo-3,5,7,8-tetrahydro-4H-thiopyrano[4,3-d]pyrimidin-2-yl)-[1,1′-biphenyl]-4-yl)boronic acid]
IC50 [1]: 5 nM
Average result ([6]; 24 h): <200
Log Reduction ([6]; 24 h): >3.0
Log Value ([6]; 24 h): <2.3
Average result ([6]; 72 h): <200
Log Reduction ([6]; 72 h): >3.0
Log Value ([6]; 72 h): <2.3
Average result ([3]; 24 h): 3.1 × 10^4
Log Reduction ([3]; 24 h): 0.1
Log Value ([3]; 24 h): 4.5
Average result ([3]; 72 h): 2.7 × 10^3
Log Reduction ([3]; 72 h): 1.2
Log Value ([3]; 72 h): 3.4
Average result ([7]; 24 h): <200
Log Reduction ([7]; 24 h): >3.2
Log Value ([7]; 24 h): <2.3
Average result ([7]; 72 h): <200
Log Reduction ([7]; 72 h): >3.2
Log Value ([7]; 72 h): <2.3
improvement in elasticity compared to the saline control [4]: 91%
Elasticity, Mean [4]: 53.682 N/mm
Elasticity, individual values [4]: 43.004 N/mm and 52.568 N/mm and 74.191 N/mm and 44.962 N/mm
improvement in max force compared to the saline control [5]: 68%
Max Force ([5]; individual value 1): 406.879 N
Max Force ([5]; individual value 2): 474.825 N
Max Force ([5]; individual value 3): 344.860 N
Max Force ([5]; individual value 4): 335.864 N
Max Force, Mean [5]: 390.607 N
